Results on two compounds are retold here after BindingDB's records for doi:10.1021/jm00142a026 (1981).

This test addresses Beta-1/Beta-2/Beta-3 adrenergic receptor (Rattus norvegicus, UniProt P10608+P18090+P26255). As to the kind of experiment: Binding affinity against Beta adrenergic receptor using [3H]dihydroalprenolol radioligand in rat brain homogenate.

Chain of Beta-1/Beta-2/Beta-3 adrenergic receptor (P18090 whole entry): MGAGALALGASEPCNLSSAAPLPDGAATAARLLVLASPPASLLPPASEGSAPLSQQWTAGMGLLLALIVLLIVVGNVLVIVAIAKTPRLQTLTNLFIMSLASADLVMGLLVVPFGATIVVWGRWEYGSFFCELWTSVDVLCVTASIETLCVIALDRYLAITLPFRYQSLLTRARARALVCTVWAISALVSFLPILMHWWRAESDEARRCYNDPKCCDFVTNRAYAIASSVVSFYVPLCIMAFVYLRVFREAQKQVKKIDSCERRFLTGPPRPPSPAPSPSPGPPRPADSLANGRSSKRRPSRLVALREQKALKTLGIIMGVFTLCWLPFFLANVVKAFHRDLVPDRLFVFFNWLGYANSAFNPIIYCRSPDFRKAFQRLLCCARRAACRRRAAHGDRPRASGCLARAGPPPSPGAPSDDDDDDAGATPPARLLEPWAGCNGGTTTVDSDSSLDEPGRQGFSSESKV
Chain of Beta-1/Beta-2/Beta-3 adrenergic receptor (P26255 whole entry): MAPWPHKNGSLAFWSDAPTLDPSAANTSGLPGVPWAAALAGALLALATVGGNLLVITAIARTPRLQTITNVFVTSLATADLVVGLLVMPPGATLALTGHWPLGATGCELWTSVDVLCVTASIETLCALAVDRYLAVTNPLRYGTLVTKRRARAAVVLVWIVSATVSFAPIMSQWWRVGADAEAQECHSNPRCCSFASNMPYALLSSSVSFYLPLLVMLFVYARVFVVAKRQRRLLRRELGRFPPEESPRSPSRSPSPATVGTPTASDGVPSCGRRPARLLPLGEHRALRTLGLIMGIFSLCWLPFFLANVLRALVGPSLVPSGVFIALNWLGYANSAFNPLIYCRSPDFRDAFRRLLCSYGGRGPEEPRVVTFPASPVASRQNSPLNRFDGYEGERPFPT
Chain of Beta-1/Beta-2/Beta-3 adrenergic receptor (P10608 whole entry): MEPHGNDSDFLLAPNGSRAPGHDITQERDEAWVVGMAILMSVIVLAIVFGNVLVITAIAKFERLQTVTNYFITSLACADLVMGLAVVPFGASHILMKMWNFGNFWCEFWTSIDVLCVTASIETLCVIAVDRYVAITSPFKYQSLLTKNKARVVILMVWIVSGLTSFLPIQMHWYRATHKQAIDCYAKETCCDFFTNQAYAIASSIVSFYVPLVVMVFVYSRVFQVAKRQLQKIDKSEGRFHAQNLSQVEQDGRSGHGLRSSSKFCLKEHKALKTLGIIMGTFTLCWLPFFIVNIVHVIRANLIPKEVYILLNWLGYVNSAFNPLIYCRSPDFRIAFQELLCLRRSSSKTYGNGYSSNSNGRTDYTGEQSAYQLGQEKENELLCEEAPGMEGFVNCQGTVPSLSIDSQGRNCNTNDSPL

In turn, `CNCC(c1ccc(O)c(O)c1)S(=O)(=O)O` (configuration not stated) came in with an IC50 of 110 µM.
`NCC(c1ccc(O)c(O)c1)S(=O)(=O)O` (configuration not stated): the half-maximal inhibitory concentration (IC50) amounted to 130 µM. The IC50 values of the last two compounds are within 1.5-fold of each other.
